Biological target: T1, EhAK1 (Entamoeba histolytica, UniProt C4M9G9)
T1 construct: gene EHI_105830
Conditions: maximal quench on ATP titration, no affinity constant

T1 sequence (C4M9G9 entry or part of it): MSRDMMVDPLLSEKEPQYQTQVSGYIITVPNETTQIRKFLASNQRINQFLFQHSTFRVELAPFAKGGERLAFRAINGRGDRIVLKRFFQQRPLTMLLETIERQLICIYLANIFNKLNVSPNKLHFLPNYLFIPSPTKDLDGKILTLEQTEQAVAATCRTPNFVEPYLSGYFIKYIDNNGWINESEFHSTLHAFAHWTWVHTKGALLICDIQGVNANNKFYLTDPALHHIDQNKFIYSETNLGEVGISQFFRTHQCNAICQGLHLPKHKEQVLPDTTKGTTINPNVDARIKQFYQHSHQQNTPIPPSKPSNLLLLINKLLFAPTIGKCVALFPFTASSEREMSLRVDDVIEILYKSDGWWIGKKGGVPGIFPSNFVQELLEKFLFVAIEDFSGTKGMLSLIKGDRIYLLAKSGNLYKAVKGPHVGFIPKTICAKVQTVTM

Which “% decrease in Trp fluorescence” value does the source give for `Nc1ncnc2c1ncn2[C@@H]1O[C@H](COP(=O)(O)OP(=O)(O)OP(=O)(O)O)[C@@H](O)[C@H]1O` [ATP] here?
Its value is 76%.
